Laboratory results as given in patent US5324648A, “Substituted isocoumarins as serine protease inhibitors and anti-inflammatory agents” (Georgia Tech Research Corporation, priority 1992, dated 1994).
Read-outs that look alike come from different tables or passages of the source.

How the values were obtained:
Format in all cases: biochemical
bovine thrombin = target: T1, bovine thrombin (Bos taurus, UniProt P00735); assay: Inactivation rate of bovine thrombin; conditions: read-out: kobs/[I]
T1 construct: bovine thrombin
Procedure, shortened: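 Enzyme 0.01-2.3 μM, 0.1M Hepes/0.01M CaCl2 pH 7.5, 8-12% Me2SO, 25° C; inhibitor added, timed aliquots assayed for remaining activity; kobs = slope of ln(vt/vo) vs t.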

[1] = target: T2, porcine pancreatic kallikrein (Sus scrofa, UniProt P00752); assay: Inactivation rate of porcine pancreatic kallikrein; conditions: Table I, read-out: kobs/[I]
T2 construct: from tissue; host or cells: porcine pancreas (from the name)
T2 sequence (P00752 8-246): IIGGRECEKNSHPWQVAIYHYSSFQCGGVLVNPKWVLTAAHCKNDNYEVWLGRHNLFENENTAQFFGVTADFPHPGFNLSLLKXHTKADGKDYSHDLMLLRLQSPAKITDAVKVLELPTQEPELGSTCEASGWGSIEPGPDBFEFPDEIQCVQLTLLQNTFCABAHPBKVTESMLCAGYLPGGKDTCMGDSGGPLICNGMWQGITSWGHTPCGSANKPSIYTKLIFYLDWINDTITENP

Cl^- s = target: T3, Cl^- s (Homo sapiens, UniProt P09871); assay: Inactivation rate of complement protein C1s; conditions: Table II; pH 7.5, 25° C; [I] 0.8 to 44 μM; read-out: kobs/[I]
T3 construct: Cl^- s^e
T3 sequence (P09871 438-688 limits assumed): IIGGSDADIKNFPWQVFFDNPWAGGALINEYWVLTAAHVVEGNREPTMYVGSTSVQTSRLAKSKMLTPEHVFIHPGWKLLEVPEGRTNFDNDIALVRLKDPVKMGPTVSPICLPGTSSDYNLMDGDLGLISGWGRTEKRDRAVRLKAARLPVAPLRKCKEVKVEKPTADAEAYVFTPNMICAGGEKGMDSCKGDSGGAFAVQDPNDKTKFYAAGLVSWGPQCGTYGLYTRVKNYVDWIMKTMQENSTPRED
T3 sequence (P09871 16-437 partner limits assumed): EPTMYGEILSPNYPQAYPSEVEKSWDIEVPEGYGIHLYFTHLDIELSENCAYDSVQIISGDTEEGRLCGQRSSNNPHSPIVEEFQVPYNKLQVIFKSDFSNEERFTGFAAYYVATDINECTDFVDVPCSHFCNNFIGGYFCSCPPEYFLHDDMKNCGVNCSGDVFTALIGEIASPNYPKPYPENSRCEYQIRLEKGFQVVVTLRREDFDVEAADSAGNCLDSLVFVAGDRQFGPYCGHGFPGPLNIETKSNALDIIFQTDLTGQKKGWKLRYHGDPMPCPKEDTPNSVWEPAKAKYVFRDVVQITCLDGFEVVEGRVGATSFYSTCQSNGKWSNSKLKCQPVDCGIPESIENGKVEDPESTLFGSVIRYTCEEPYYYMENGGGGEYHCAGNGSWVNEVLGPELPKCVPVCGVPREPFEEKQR
Method: (§1) Inactivation rates of serine proteases by substituted isocoumarins were measured by the incubation method. An aliquot of inhibitor (25 or 50 μl) in Me2 SO was added to a buffered enzyme solution (0.01-2.3 μM) to initiate the inactivation. Aliquots (50 μl) were withdrawn at various intervals and the residual enzymatic activity was measured. Me2 SO concentration in the reaction mixture was 8-12% (v/v). 0.1 Hepes, 0.01M CaCl2, pH 7.5 buffer was utilized for trypsin and coagulation enzymes. 0.1M Hepes, 0.5M NaCl, pH 7.5 was utilized for other serine proteases. The inhibitor concentrations are shown in all the tables. Peptide thioesters or peptide nitroanilides with appropriate sequence were used as substrates for various serine proteases. All peptide thioester hydrolysis rates were measured with assay mixtures containing 4,4'-dithiodipyridine (ε324 =19800M^-1 cm^-1; Grasetti & Murray, Arch. Biochem. Biophys. 119, pp 41-49 (1967)). Peptide 4-nitroanilide nitroanilide hydrolysis was measured at 410 nm (ε410 =8800M^-1 cm^-1; Erlanger et al., Arch. Biochem. Biophys. 95, pp 271-278 (1961)). First order inactivation rate constant (kobs) were obtained from plots of ln (vt /vo) vs time, and the correlation coefficients were greater than 0.98.
(§2) ^a Conditions were 0.1M Hepes, 0.5M NaCl, pH 7.5, 8-10% Me2 SO
(§3) and 25° C. Inactivation rates were measured by incubation method.
(§4) Enzyme concentrations were as follows: protein D, 1-9 μM; C2, 0.7-1
(§5) μM; B, 1.8 μM; Bb, 0.3-0.8 μM; Cl^- s, 0.07 μM; Cl^-

cathepsin G = target: T4, cathepsin G (Homo sapiens, UniProt P08311); assay: Inactivation of cathepsin G; conditions: for kinact/KI: pH 7.5, 25° C, read-out: kobs/[I]
T4 construct: from tissue; host or cells: human leukocytes
T4 sequence (P08311 21-255): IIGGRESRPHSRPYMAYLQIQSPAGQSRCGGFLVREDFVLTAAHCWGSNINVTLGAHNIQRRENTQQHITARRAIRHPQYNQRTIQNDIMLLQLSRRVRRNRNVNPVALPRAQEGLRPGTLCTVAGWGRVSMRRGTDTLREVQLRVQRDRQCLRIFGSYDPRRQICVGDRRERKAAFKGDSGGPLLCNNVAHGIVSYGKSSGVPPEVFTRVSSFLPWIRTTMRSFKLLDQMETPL
Method: Inactivation rates of serine proteases by substituted isocoumarins were measured by the incubation method. An aliquot of inhibitor (25 or 50 μl) in Me2 SO was added to a buffered enzyme solution (0.01-2.3 μM) to initiate the inactivation. Aliquots (50 μl) were withdrawn at various intervals and the residual enzymatic activity was measured. Me2 SO concentration in the reaction mixture was 8-12% (v/v). 0.1 Hepes, 0.01M CaCl2, pH 7.5 buffer was utilized for trypsin and coagulation enzymes. 0.1M Hepes, 0.5M NaCl, pH 7.5 was utilized for other serine proteases. […] Peptide thioesters or peptide nitroanilides with appropriate sequence were used as substrates for various serine proteases. All peptide thioester hydrolysis rates were measured with assay mixtures containing 4,4'-dithiodipyridine (ε324 =19800M^-1 cm^-1 ; Grasetti & Murray, Arch. Biochem. Biophys. 119, pp 41-49 (1967)). Peptide 4-nitroanilide nitroanilide hydrolysis was measured at 410 nm (ε410 =8800M^-1 cm^-1 ; Erlanger et al., Arch. Biochem. Biophys. 95, pp 271-278 (1961)). First order inactivation rate constant (kobs) were obtained from plots of ln (vt /vo) vs time, and the correlation coefficients were greater than 0.98.
^a Inactivation rates were measured at 0.1M Hepes, 0.5 NaCl, pH 7.5,
8-12% Me2 SO and 25° C. by incubation method.
and assayed for remaining activity.
^a Inhibition rates were measured in 0.1M Hepes, 0.05M NaCl, pH 7.5
buffer, 8-9% Me2 SO and at 25° C.
Me2 SO, pH 7,5 and at 25° C.
^a Inhibition was measured in 0.1M Hepes, 0.5M NaCl, pH 7.5 buffer,
5-10% Me2 SO and at 25° C. Suc--Val--Pro--Phe--NA (0.48 mM)
was used as the substrate for chymotrypsin and cat G.

[2] = target: T5, porcine pancreatic elastase (PPE) (Sus scrofa, UniProt P00772); assay: Inactivation of porcine pancreatic elastase (PPE); conditions: pH 7.5, 25° C, read-out: kobs/[I]
T5 construct: from tissue; host or cells: porcine pancreas (from the name)
T5 sequence (P00772 27-266): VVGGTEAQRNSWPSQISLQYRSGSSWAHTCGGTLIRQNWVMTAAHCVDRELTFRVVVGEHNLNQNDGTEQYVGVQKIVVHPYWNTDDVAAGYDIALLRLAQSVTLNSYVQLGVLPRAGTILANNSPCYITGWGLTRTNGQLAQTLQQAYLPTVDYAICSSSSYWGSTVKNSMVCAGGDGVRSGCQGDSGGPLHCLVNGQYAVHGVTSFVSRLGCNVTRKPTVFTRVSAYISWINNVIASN

human factor XIa = target: T6, human factor XIa (Homo sapiens, UniProt P03951); assay: Inactivation rate of human factor XIa; conditions: pH 7.5, 25° C, read-out: kobs/[I]
T6 construct: human factor XIa
T6 sequence (P03951 388-625 limits assumed): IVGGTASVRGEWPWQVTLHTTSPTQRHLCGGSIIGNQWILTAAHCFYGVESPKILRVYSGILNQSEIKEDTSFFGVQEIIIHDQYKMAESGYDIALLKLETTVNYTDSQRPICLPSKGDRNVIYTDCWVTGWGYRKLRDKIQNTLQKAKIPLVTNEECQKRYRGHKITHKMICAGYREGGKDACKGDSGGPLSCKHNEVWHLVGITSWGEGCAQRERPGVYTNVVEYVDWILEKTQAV
T6 sequence (P03951 19-387 partner limits assumed): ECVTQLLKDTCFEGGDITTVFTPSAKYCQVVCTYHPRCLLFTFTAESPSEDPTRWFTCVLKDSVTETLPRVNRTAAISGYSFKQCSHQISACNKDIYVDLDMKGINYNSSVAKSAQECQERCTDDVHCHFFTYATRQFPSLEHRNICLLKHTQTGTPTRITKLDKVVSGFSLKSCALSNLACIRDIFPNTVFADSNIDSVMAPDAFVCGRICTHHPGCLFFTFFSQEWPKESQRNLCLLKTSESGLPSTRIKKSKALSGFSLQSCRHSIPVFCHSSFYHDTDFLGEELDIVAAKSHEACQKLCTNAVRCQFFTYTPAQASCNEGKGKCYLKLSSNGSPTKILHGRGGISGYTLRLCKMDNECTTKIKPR
Method: as §1
^a Conditions were as 0.1M Hepes, 0.01M CaCl2, pH 7.5 and 8-12%
Me2 SO and 25° C. Rate constants were measured by incubation
method unless otherwise noted. An aliquot of inhibitor was added to an
enzyme solution and aliquots removed with time and assayed for remaining
enzymatic activity. Firstorder rate constants, kobs were obtained
from the plots of ln(vt /vo) versus time.
^a Inhibition rates were measured in 0.1M Hepes, 0.01M CaCl2, pH
7.5 buffer, 8% Me2 SO and at 25° C.

[3] = target: sheep lung lymph tryptase; assay: Inactivation rate of sheep lung lymph tryptase; conditions: Table III; pH 7.5, 25° C; [I] 10 to 460 μM
Method: Inactivation rates of serine proteases by substituted isocoumarins were measured by the incubation method. An aliquot of inhibitor (25 or 50 μl) in Me2 SO was added to a buffered enzyme solution (0.01-2.3 μM) to initiate the inactivation. Aliquots (50 μl) were withdrawn at various intervals and the residual enzymatic activity was measured. […] 0.1 Hepes, 0.01M CaCl2, pH 7.5 buffer was utilized for trypsin and coagulation enzymes. […] The inhibitor concentrations are shown in all the tables. Peptide thioesters or peptide nitroanilides with appropriate sequence were used as substrates for various serine proteases.
^a Inactivation rates were measured at 0.1M Hepes, 0.5M NaCl, pH 7.5
buffer, 8% Me2 SO and 25° C.

bovine factor Xa = target: T7, bovine factor Xa (Bos taurus, UniProt P00743); assay: Inactivation rate of bovine factor Xa; conditions: Table I; pH 7.5, 25° C; [I] 0.4 to 310 μM; read-out: kobs/[I]
T7 construct: bovine factor Xa
T7 sequence (P00743 234-492 limits assumed): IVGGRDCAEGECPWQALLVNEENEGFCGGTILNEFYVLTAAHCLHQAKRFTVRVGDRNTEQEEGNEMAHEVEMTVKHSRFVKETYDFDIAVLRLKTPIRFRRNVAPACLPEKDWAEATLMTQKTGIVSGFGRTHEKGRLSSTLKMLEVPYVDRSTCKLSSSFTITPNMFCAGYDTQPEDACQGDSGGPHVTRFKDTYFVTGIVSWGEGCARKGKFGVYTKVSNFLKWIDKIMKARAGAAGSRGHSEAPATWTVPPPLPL
T7 sequence (P00743 41-180 partner limits assumed): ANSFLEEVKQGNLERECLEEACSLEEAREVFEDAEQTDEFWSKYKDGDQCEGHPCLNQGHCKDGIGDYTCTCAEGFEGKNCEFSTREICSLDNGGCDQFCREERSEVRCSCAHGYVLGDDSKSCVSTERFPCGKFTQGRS

complement protein B = complement protein B (Homo sapiens, UniProt P00751); assay: Inactivation rate of complement protein B; conditions: for kinact/KI: Table II, pH 7.5, 25° C, [I] 0.19 to 1.25 mM, read-out: kobs/[I]
Sequence of complement protein B (P00751 26-764): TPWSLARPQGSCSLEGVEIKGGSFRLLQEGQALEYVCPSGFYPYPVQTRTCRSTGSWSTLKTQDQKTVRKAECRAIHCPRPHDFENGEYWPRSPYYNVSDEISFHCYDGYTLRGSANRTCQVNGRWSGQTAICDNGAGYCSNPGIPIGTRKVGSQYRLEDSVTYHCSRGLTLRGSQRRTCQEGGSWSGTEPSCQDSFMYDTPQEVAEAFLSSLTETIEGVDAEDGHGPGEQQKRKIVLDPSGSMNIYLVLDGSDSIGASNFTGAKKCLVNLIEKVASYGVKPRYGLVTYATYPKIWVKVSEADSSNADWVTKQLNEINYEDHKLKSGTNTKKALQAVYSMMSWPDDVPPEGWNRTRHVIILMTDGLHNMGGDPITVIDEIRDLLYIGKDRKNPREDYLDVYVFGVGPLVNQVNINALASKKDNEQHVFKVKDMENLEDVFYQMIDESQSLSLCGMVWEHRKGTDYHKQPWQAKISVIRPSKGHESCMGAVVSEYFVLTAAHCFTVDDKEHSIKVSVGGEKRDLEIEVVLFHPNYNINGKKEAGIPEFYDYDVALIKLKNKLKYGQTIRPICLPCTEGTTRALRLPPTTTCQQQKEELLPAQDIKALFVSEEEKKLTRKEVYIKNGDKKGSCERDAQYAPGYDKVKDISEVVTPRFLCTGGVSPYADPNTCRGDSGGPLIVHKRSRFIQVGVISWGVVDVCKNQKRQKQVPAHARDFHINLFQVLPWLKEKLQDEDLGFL
Method: as §1, §2, §3, §4, §5

[4] = pH 7.5, Table I, same concentration of enzyme and inhibitor
[5] = pH 7.5, same concentration of enzyme and inhibitor
[6] = Table I, pH 7.5, 25° C, [I] 0.3 to 400 μM
[7] = pH 7.5, 25° C, [I] 0.4 to 300 μM

| SMILES | kinact/KI (bovine thrombin; [4]) | kinact/KI [1, 5] | kinact/KI (Cl^- s) | kinact/KI (cathepsin G; Table IV, [I] 0.002 to 0.35 mM) | kinact/KI ([2]; Table IV, [I] 0.01 to 0.51 mM) | kinact/KI (human factor XIa; Table I, [I] 3 to 330 μM) | kobs/[I] [3] | kinact/KI (bovine factor Xa) | inhibition of protein B (in words) (complement protein B) | kinact/KI (bovine thrombin; [6]) | kinact/KI [1, 7] | kinact/KI (complement protein B) | kinact/KI (bovine thrombin; pH 7.5, Table I, progress curve method) | kinact/KI ([1]; pH 7.5, progress curve method) | inhibition at 490 µM (cathepsin G; Table IV, not time dependent, at 0.49 mM) | kinact/KI (bovine thrombin; Table VIII, pH 7.5, 25° C, [I] 1.2-54 μM) | kinact/KI (cathepsin G; Table X, [I] 33-46 μM) | kinact/KI ([2]; Table X, [I] 33-46 μM) | kinact/KI (human factor XIa; Table VIII, [I] 0.7-0.8 μM) |
| --- | --- | --- | --- | --- | --- | --- | --- | --- | --- | --- | --- | --- | --- | --- | --- | --- | --- | --- | --- |
| N=C(N)Nc1ccc2c(Cl)c(OCCc3ccccc3)oc(=O)c2c1 [7-guanidino-4-chloro-3-(2-phenylethoxy)isocoumarin] | > 30000 M⁻¹ s⁻¹ | 200000 M⁻¹ s⁻¹ | 90 M⁻¹ s⁻¹ | 66000 M⁻¹ s⁻¹ | 5.7 M⁻¹ s⁻¹ | 20000 M⁻¹ s⁻¹ | 3,900 M^-1 s^-1 | 96000 M⁻¹ s⁻¹ | – | – | – | – | – | – | – | – | – | – | – |
| O=c1oc(Cl)c(Cl)c2ccccc12 [3,4-dichloroisocoumarin, reference compound] | – | – | 170 M⁻¹ s⁻¹ | – | – | – | 39 M⁻¹ s⁻¹ | – | do not show any inhibition | – | – | – | – | – | – | – | – | – | – |
| N=C(N)SCCCOc1oc(=O)c2cc(N)ccc2c1Cl [7-amino-4-chloro-3-(3-isothiureidopropoxy)isocoumarin] | – | > 110000 M⁻¹ s⁻¹ | 23000 M⁻¹ s⁻¹ | 36 M⁻¹ s⁻¹ | 1 M⁻¹ s⁻¹ | 22000 M⁻¹ s⁻¹ | 710 M⁻¹ s⁻¹ | 1640 M⁻¹ s⁻¹ | – | 630 M⁻¹ s⁻¹ | – | – | – | – | – | – | – | – | – |
| N=C(N)SCCOc1oc(=O)c2ccccc2c1Cl [3-(2-isothiureidoethoxy)-4-chloroisocoumarin] | – | – | – | 110 M⁻¹ s⁻¹ | 270 M⁻¹ s⁻¹ | 44000 M⁻¹ s⁻¹ | 290 M⁻¹ s⁻¹ | 5600 M⁻¹ s⁻¹ | – | 4700 M⁻¹ s⁻¹ | 12000 M⁻¹ s⁻¹ | 13 M⁻¹ s⁻¹ | – | – | – | – | – | – | – |
| COc1oc(=O)c2cc(NC(=N)N)ccc2c1Cl [7-guanidino-4-chloro-3-methoxyisocoumarin] | – | – | 660 M⁻¹ s⁻¹ | 11000 M⁻¹ s⁻¹ | 860 M⁻¹ s⁻¹ | 36200 M⁻¹ s⁻¹ | 620 M⁻¹ s⁻¹ | 3100 M⁻¹ s⁻¹ | – | – | – | 285 M⁻¹ s⁻¹ | 290000 M⁻¹ s⁻¹ | 45000 M⁻¹ s⁻¹ | – | – | – | – | – |
| COc1cc2ccc(NC(=N)N)cc2c(=O)o1 [7-guanidino-3-methoxyisocoumarin] | – | – | – | – | 55 M⁻¹ s⁻¹ | 1400 M⁻¹ s⁻¹ | 53 M⁻¹ s⁻¹ | 460 M⁻¹ s⁻¹ | – | 4900 M⁻¹ s⁻¹ | 1900 M⁻¹ s⁻¹ | – | – | – | 81% | – | – | – | – |
| NCCCOc1oc(=O)c2ccccc2c1Cl [3-(3-aminopropoxy)-4-chloroisocoumarin] | – | – | – | 260 M⁻¹ s⁻¹ | 70 M⁻¹ s⁻¹ | 380 M⁻¹ s⁻¹ | 18 M⁻¹ s⁻¹ | 160 M⁻¹ s⁻¹ | – | 350 M⁻¹ s⁻¹ | 860 M⁻¹ s⁻¹ | – | – | – | – | – | – | – | – |
| CCOc1oc(=O)c2cc(NC(=N)N)ccc2c1Cl [7-guanidino-3-ethoxy-4-chloroisocoumarin, 7-guanidino-4-chloro-3-ethoxyisocoumarin] | > 55000 M⁻¹ s⁻¹ | > 200000 M⁻¹ s⁻¹ | 690 M⁻¹ s⁻¹ | 84000 M⁻¹ s⁻¹ | 2300 M⁻¹ s⁻¹ | 60000 M⁻¹ s⁻¹ | 2,200 M^-1 s^-1 | 26700 M⁻¹ s⁻¹ | – | – | – | 167 M⁻¹ s⁻¹ | – | – | – | – | – | – | – |
| N=C(N)SCCCOc1oc(=O)c2ccccc2c1Cl [3-(3-isothiureidopropoxy)-4-chloroisocoumarin] | – | – | 130000 M⁻¹ s⁻¹ | 83 M⁻¹ s⁻¹ | 70 M⁻¹ s⁻¹ | 47000 M⁻¹ s⁻¹ | 230 M⁻¹ s⁻¹ | 220 M⁻¹ s⁻¹ | – | 1430 M⁻¹ s⁻¹ | 19000 M⁻¹ s⁻¹ | 0.4 M⁻¹ s⁻¹ | – | – | – | – | – | – | – |
| N=C(N)SCCOc1oc(=O)c2cc(NC(=O)Nc3ccccc3)ccc2c1Cl [PhNHCONH-CiTEtOIC, 7-(phenylcarbamoylamino)-4-chloro-3-(2-isothiureidoethoxy)isocoumarin] | – | – | – | – | – | – | – | – | – | – | – | – | – | – | – | 25000 M⁻¹ s⁻¹ | 100 M⁻¹ s⁻¹ | 840 M⁻¹ s⁻¹ | 104000 M⁻¹ s⁻¹ |
